# Measurements reported in article PMC5974779, “Prediction of Drug-Induced Hepatotoxicity Using Long-Term Stable Primary Hepatic 3D Spheroid Cultures in Chemically Defined Conditions” (Toxicological Sciences, 2018).
# Where a name gives a salt, the structure may show the parent alone. Read-outs that look alike come from different tables or passages of the source.
# How the values were obtained:
# PHH 2D sandwich cultures = details: cited from earlier work; for hepatotoxicity detection in 2D sandwich cultures of PHH: 100× cmax, 24 h, high content imaging; for hepatotoxicity detection in 2D sandwich cultures of PHH / reactive oxygen species levels in 2D sandwich cultures of PHH: ref Xu et al., 2008
# [1] = tested on: primary human hepatocytes (PHH) 3D spheroids
# [2] = cited from earlier work
# clinical DILI in man = details: in vivo; cited from earlier work
# [3] = ref DrugBank and Prescribers' Digital Reference database; cited from earlier work
# [4] = therapeutic total cmax, ref PMID
# [5] = PHH 2D sandwich cultures, 100x Cmax, ref Xu 2008
SMILES,Chemically defined spheroids (this study) 20x [1],"Cmax [2, 4] [nM]",Classified as (clinical DILI in man),Clinical DILI class (panel heading of Figure 4) (clinical DILI in man),DILI in vivo (clinical DILI in man),Type of DILI (clinical DILI in man),also measured
CN(C)CCCN1c2ccccc2CCc2ccc(Cl)cc21 [Clomipramine],Positive,–,–,–,–,–,hepatotoxicity detection in 2D sandwich cultures of PHH (PHH 2D sandwich cultures): liver toxicity was not recognized
O=C(O)c1cc(/N=N/c2ccc(S(=O)(=O)Nc3ccccn3)cc2)ccc1O [Sulfasalazine],Positive,15100,–,–,–,–,–
CN(C)/N=N/c1[nH]cnc1C(N)=O [Dacarbazine],Positive,16600,POS,Severe DILI,POS,Hepatocellular injury,FDA (0-8) (clinical DILI in man): 6; FDA (Severity) (clinical DILI in man): most DILI concern; Guo et al. (2005) (clinical DILI in man): 3; Sakatis et al. (2012) (clinical DILI in man): Hepatotoxic; Extent of hepatic metabolism [3]: Extensive
CC/C(=C(\c1ccccc1)c1ccc(OCCN(C)C)cc1)c1ccccc1 [Tamoxifen],–,160,–,–,–,–,Extent of hepatic metabolism [3]: Extensive
COc1ccc([C@@H]2Sc3ccccc3N(CCN(C)C)C(=O)[C@@H]2OC(C)=O)cc1 [Diltiazem],Negative,327,–,–,–,–,–
NCCCC[C@H](N[C@@H](CCc1ccccc1)C(=O)O)C(=O)N1CCC[C@H]1C(=O)O [Lisinopril],Positive,660,–,–,–,–,hepatotoxicity detection in 2D sandwich cultures of PHH (PHH 2D sandwich cultures): liver toxicity was not recognized
N=C(N)NC(=O)c1nc(Cl)c(N)nc1N [Amiloride],Negative,87,NEG,DILI negative,NEG,Non-hepatotoxic,FDA (0-8) (clinical DILI in man): 3; Suzuki et al. (2010) (clinical DILI in man): 2; Xu et al. (2008) (clinical DILI in man): Negative; 2Dsw (Xu 2008) 100x (PHH 2D sandwich cultures): Negative
NC12CC3CC(CC(C3)C1)C2 [Amantadine],Negative,4300,NEG,DILI negative,NEG,Non-hepatotoxic,FDA (0-8) (clinical DILI in man): 3; FDA (Severity) (clinical DILI in man): less DILI concern; Xu et al. (2008) (clinical DILI in man): Negative; 2Dsw (Xu 2008) 100x (PHH 2D sandwich cultures): Negative
Clc1ccc(COC(Cn2ccnc2)c2ccc(Cl)cc2Cl)c(Cl)c1 (centres unmarked) [Miconazole],Negative,24,–,–,–,–,–
CC(=O)CC(c1ccccc1)c1c(O)c2ccccc2oc1=O (centres unmarked) [Warfarin],Negative,4860,–,–,–,–,–
CN(C)C(=O)C(CCN1CCC(O)(c2ccc(Cl)cc2)CC1)(c1ccccc1)c1ccccc1 [Loperamide],–,–,–,–,–,–,"Cmax ([2]; human, in vivo): 7.8 nM"
CC(=O)Nc1ccc(OCC(O)CNC(C)C)cc1 (centres unmarked) [Practolol],Negative,18800,–,–,–,–,–
CN(C)CCN(Cc1cccs1)c1ccccn1 [Methapyrilene],–,170,NEG,DILI negative,NEG,Non-hepatotoxic,Extent of hepatic metabolism [3]: Moderate
CC(N/C(=N\C#N)Nc1ccncc1)C(C)(C)C (centres unmarked) [Pinacidil],Negative,290,NEG,DILI negative,NEG,Non-hepatotoxic,2Dsw (Xu 2008) 100x (PHH 2D sandwich cultures; [5]): Negative
O=c1ccc2ccccc2o1 [Coumarin],Positive,10000,POS,High DILI concern,POS,Cholestatic injury,–
COCCOC(=O)C1=C(C)NC(C)=C(C(=O)OC(C)C)C1c1cccc([N+](=O)[O-])c1 (centres unmarked) [Nimodipine],Positive,110,–,–,–,–,2Dsw (Xu 2008) 100x (PHH 2D sandwich cultures; [5]): Positive
C[C@]12CCC(=O)C=C1CC[C@@H]1[C@@H]2[C@@H](O)C[C@@]2(C)[C@H]1CC[C@]2(O)C(=O)CO [Hydrocortisone],Negative,840,NEG,DILI negative,NEG,Non-hepatotoxic,FDA (0-8) (clinical DILI in man): 0; Xu et al. (2008) (clinical DILI in man): Negative; 2Dsw (Xu 2008) 100x (PHH 2D sandwich cultures; [5]): Negative

SMILES,Chemically defined spheroids (this study) 20x [1],"Cmax [2, 4] [nM]",Classified as (clinical DILI in man),Clinical DILI class (panel heading of Figure 4) (clinical DILI in man),DILI in vivo (clinical DILI in man),Type of DILI (clinical DILI in man),also measured
CCC(=O)OCC(=O)[C@@]1(OC(=O)CC)[C@@H](C)C[C@H]2[C@@H]3CCC4=CC(=O)C=C[C@]4(C)[C@@]3(Cl)[C@@H](O)C[C@@]21C [Beclomethasone Dipropionate],Negative,0.15,–,–,–,–,–
C=C[C@H]1C[N@@]2CC[C@H]1C[C@@H]2[C@@H](O)c1ccnc2ccc(OC)cc12 [Quinidine],Positive,8660,–,–,–,–,2Dsw (Xu 2008) 100x (PHH 2D sandwich cultures): Positive
N[C@@H](Cc1ccc(O)c(O)c1)C(=O)O [Levodopa],Negative,6850,–,–,–,–,2Dsw (Xu 2008) 100x (PHH 2D sandwich cultures; [5]): Negative
CCc1c(C)[nH]c2c1C(=O)C(CN1CCOCC1)CC2 (centres unmarked) [Molindone],Negative,1540,POS,High DILI concern,POS,Hepatocellular injury,2Dsw (Xu 2008) 100x (PHH 2D sandwich cultures; [5]): Negative
CN1CCN(C2=Nc3cc(Cl)ccc3Nc3ccccc32)CC1 [Clozapine],–,2450,–,–,–,–,Extent of hepatic metabolism [3]: Extensive
COC(=O)C1=C(C)NC(C)=C(C(=O)OCCN(C)Cc2ccccc2)C1c1cccc([N+](=O)[O-])c1 (centres unmarked) [Nicardipine],–,80,–,–,–,–,–
CCN(CC)C(=S)SSC(=S)N(CC)CC [Disulfiram],Positive,1350,–,–,–,–,–
CCN(CC)C(=O)N1CCN(C)CC1 [Diethylcarbamazine],Negative,1630,–,–,–,–,–
CC(C)NCC(O)COc1cccc2ccccc12 (centres unmarked) [Propranolol],–,–,–,–,–,–,Extent of hepatic metabolism [3]: Extensive
CN(C)CCC(c1ccc(Br)cc1)c1ccccn1 (centres unmarked) [Brompheniramine Maleate],Negative,27,–,–,–,–,–
CN(C)[C@@H]1C(O)=C(C(N)=O)C(=O)[C@@]2(O)C(O)=C3C(=O)c4c(O)cccc4[C@@](C)(O)[C@H]3C[C@@H]12 [Tetracycline],–,–,POS,High DILI concern,POS,Hepatocellular injury,FDA (0-8) (clinical DILI in man): 2; FDA (Severity) (clinical DILI in man): less DILI concern; Guo et al. (2005) (clinical DILI in man): 3; O'Brien et al. (2003) (clinical DILI in man): Moderately; Sakatis et al. (2012) (clinical DILI in man): Hepatotoxic; Suzuki et al. (2010) (clinical DILI in man): 1; Xu et al. (2008) (clinical DILI in man): Positive
CN1CCN(CCCN2c3ccccc3Sc3ccc(C(F)(F)F)cc32)CC1 [Trifluoperazine],Negative,4.5,POS,High DILI concern,POS,Cholestatic injury or Mixed hepatitis,FDA (0-8) (clinical DILI in man): 2; FDA (Severity) (clinical DILI in man): less DILI concern; O'Brien et al. (2003) (clinical DILI in man): Moderately; Xu et al. (2008) (clinical DILI in man): Positive; hepatotoxicity detection in 2D sandwich cultures of PHH (PHH 2D sandwich cultures): flagged as hepatotoxic; 2Dsw (Xu 2008) 100x (PHH 2D sandwich cultures; [5]): Positive; reactive oxygen species levels in 2D sandwich cultures of PHH (PHH 2D sandwich cultures): only slight increases in reactive oxygen species levels; hepatotoxicity evaluation in CD-spheroids [1]: predicted to be DILI negative
CC(C)NCC(O)COc1ccc(CC(N)=O)cc1 (centres unmarked) [Atenolol],–,–,–,–,–,–,2Dsw (Xu 2008) 100x (PHH 2D sandwich cultures; [5]): Negative
NS(=O)(=O)c1cc(C(=O)O)c(NCc2ccco2)cc1Cl [Furosemide],–,–,–,–,–,–,2Dsw (Xu 2008) 100x (PHH 2D sandwich cultures; [5]): Negative
CCCSc1ccc2nc(NC(=O)OC)[nH]c2c1 [Albendazole],Negative,900,POS,Severe DILI,POS,Cholestatic injury or Mixed hepatitis,FDA (0-8) (clinical DILI in man): 7; Suzuki et al. (2010) (clinical DILI in man): 1; Xu et al. (2008) (clinical DILI in man): Positive; hepatotoxicity detection in 2D sandwich cultures of PHH (PHH 2D sandwich cultures): flagged as hepatotoxic; 2Dsw (Xu 2008) 100x (PHH 2D sandwich cultures; [5]): Positive; reactive oxygen species levels in 2D sandwich cultures of PHH (PHH 2D sandwich cultures): only slight increases in reactive oxygen species levels; hepatotoxicity evaluation in CD-spheroids [1]: predicted to be DILI negative
Cc1cccc(C)c1OCC(C)N (centres unmarked) [Mexiletine],Positive,35000,POS,High DILI concern,POS,Hepatocellular injury or Mixed hepatitis,FDA (0-8) (clinical DILI in man): 3; FDA (Severity) (clinical DILI in man): less DILI concern; Suzuki et al. (2010) (clinical DILI in man): 1; Xu et al. (2008) (clinical DILI in man): Positive; 2Dsw (Xu 2008) 100x (PHH 2D sandwich cultures): Positive
CC(C)NCC(O)COc1cccc2[nH]ccc12 (centres unmarked) [Pindolol],–,270,NEG,DILI negative,NEG,Non-hepatotoxic,FDA (0-8) (clinical DILI in man): 0; Xu et al. (2008) (clinical DILI in man): Negative; 2Dsw (Xu 2008) 100x (PHH 2D sandwich cultures; [5]): Negative
